This note sets out measurements from article doi:10.1101/2022.11.14.516475v2 (biorxiv, 2022).

In one data set the target is T1, 5-HT7 serotonin receptor (Homo sapiens, UniProt P34969).
T1 construct: gene HTR7
Put plainly: PDSP radioligand binding competition. Particulars: read-out: % inhibition at 10 μM.

In data set [1] the target is T2, 5-HT2A serotonin receptor (Homo sapiens, UniProt P28223).
T2 construct: gene HTR2A; DiscoverX gpcrMAX PathHunter beta-arrestin cell line, enzyme-fragment tagged receptor
T2 sequence (P28223 whole entry, the tested form may be a part): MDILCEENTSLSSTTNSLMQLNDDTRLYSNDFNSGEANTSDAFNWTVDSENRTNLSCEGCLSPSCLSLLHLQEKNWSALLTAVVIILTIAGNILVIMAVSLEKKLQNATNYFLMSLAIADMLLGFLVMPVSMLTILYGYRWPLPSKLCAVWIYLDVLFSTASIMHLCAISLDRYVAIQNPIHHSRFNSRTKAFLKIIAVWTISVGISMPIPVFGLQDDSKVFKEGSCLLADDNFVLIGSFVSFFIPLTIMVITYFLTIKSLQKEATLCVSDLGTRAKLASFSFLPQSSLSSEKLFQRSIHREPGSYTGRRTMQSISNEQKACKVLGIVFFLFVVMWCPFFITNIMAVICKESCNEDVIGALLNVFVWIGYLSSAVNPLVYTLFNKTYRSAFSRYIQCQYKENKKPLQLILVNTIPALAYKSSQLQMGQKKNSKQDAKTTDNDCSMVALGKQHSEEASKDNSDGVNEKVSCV
The data set is described as follows: DiscoverX gpcrMAX beta-arrestin recruitment, antagonist mode. Particulars: read-out: % inhibition at 10 μM. Type of data set: cell-based.

The target of data set [2] is T3, D2 (Homo sapiens, UniProt P14416). The data set is described as follows: biochemical. Also noted: gene DRD2; PDSP radioligand binding competition, single concentration, % inhibition of specific binding. As to conditions: read-out: ML321 (10 µM) % Inhibition.
T3 sequence (P14416 whole entry): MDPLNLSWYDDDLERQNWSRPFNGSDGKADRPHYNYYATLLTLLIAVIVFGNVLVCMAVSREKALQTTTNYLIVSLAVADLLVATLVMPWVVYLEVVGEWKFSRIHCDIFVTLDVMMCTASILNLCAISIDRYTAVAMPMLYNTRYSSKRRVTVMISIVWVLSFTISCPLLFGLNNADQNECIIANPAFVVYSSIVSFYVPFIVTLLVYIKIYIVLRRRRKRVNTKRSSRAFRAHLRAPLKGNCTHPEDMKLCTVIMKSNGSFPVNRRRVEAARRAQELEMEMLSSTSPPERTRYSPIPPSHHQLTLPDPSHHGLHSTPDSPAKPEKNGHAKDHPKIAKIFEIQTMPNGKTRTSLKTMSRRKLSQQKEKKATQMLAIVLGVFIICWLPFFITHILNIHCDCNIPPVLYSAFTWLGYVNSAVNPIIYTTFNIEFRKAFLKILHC
The next data set deals with T4, D3 (Homo sapiens, UniProt P35462).
T4 construct: gene DRD3
T4 sequence (P35462 whole entry): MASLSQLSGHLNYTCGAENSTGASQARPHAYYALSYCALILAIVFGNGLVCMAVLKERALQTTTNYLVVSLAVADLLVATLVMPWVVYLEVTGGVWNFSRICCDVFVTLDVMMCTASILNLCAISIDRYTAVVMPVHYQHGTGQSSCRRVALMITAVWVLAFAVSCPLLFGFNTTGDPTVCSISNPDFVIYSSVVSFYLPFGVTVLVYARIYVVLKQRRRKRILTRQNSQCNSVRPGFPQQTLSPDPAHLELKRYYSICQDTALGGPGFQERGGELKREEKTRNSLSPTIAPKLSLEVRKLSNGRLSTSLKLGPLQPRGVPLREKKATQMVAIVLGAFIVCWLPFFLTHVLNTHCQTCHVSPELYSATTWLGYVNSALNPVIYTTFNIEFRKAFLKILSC
Put plainly: biochemical. Details: PDSP radioligand binding competition, single concentration, % inhibition of specific binding. As to conditions: read-out: ML321 (10 µM) % Inhibition. As to the method: ML321 was screened using the National Institute of Mental Health Psychoactive Drug Screening Program (PDSP) directed by Dr. Bryan L. Roth (University of North Carolina, Chapel Hill, NC). For experimental details including radioligands used and associated Kd values for each individual target, please refer to the PDSP website http://pdsp.med.unc.edu/. […] Assays were performed in triplicate. To further assess ML321 selectivity amongst a larger group of drug targets, we used the NIMH Psychoactive Drug Screening Program (PDSP), which utilizes radioligand binding competition assays for 46 unique GPCRs, transporters and ion channels. For screening, a single high concentration (10 µM) of ML321 was used to compete for radioligand binding to the PDSP targets (Figure 1C).

Data set [3] concerns the target T5, SNAP-tagged human D2SR (SNAP-D2RS) (Homo sapiens, UniProt P14416).
T5 construct: gene DRD2
Put plainly: biochemical. Type of data set: CHO cell membranes. As to conditions: read-out: koff (min^-1). Also noted: TR-FRET competition kinetic binding with PPHT-red, Motulsky-Mahan fit.

The target in data set [4] is T6, 5-HT2C serotonin receptor (Homo sapiens, UniProt P28335).
T6 construct: gene HTR2C
T6 sequence (P28335 33-458): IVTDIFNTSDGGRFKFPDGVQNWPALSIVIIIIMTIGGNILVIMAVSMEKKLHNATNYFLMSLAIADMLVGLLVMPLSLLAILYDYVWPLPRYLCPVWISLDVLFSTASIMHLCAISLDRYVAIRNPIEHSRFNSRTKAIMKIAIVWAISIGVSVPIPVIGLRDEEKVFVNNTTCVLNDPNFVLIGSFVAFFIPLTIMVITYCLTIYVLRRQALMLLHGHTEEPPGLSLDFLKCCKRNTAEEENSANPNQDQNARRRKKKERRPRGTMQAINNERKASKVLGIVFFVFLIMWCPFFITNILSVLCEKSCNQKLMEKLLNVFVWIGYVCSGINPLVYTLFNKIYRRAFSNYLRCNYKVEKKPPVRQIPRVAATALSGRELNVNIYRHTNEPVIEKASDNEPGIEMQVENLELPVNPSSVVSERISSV
The data set is described as follows: PDSP radioligand binding competition. Particulars: read-out: % inhibition at 10 μM.

In a further data set the target is T7, hERG K+ channel (Homo sapiens, UniProt Q12809).
T7 construct: gene KCNH2; expressed in HEK293 cells (Cyprotex), automated patch clamp
T7 sequence (Q12809 whole entry): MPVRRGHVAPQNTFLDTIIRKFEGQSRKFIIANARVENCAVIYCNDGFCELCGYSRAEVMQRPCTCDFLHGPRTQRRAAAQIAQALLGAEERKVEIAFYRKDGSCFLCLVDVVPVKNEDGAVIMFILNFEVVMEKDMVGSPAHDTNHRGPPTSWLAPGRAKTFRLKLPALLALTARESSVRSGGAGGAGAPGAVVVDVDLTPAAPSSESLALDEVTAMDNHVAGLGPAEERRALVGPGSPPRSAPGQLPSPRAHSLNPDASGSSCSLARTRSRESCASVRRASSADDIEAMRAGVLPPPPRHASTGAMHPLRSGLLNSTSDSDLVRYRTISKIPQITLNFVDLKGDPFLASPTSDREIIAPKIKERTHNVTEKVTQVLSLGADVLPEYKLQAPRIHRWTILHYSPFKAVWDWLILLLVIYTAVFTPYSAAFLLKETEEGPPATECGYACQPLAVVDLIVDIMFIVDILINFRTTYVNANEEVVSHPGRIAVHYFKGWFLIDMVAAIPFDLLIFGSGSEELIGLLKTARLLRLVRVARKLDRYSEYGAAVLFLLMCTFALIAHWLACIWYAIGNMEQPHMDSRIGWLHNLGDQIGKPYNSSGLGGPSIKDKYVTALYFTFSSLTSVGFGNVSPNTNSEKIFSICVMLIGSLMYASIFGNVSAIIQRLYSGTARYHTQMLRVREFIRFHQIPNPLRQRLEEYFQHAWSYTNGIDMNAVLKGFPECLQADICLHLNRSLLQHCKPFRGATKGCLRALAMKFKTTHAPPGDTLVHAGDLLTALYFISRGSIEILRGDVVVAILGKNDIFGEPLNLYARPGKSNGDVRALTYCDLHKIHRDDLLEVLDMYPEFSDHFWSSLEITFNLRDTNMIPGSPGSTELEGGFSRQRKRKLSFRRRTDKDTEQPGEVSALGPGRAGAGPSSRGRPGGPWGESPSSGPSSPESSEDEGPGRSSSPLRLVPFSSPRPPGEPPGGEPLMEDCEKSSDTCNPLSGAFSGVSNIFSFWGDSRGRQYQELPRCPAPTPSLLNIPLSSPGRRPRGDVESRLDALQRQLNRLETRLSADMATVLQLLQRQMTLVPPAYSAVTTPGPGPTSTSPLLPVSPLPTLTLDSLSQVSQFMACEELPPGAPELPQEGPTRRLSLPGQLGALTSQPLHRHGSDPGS
Put plainly: automated whole-cell patch clamp, HEK293, tail current. The format is cell-based. Particulars: hek293 cells. In general terms: Patch clamp records ionic current or voltage across a cell membrane.

In data set [5] the target is T3, D2. Type of data set: cell-based. Details: gene DRD2; full length; pcDNA3.1 mutants); DiscoverX beta-galactosidase fragment fusion for beta-arrestin assay. Particulars: agonist.
For data set [6], the target named is T5, SNAP-tagged human D2SR (SNAP-D2RS). Put plainly: TR-FRET association kinetics. Type of data set: binding. Particulars: labelled compound; read-out: Kd (koff / kon).
Data set [7] concerns the target T3, D2. Type of data set: binding. Also noted: gene DRD2; full length; pcDNA3.1 mutants); DiscoverX beta-galactosidase fragment fusion for beta-arrestin assay. Particulars: wild-type control.

T5 sequence (P14416 1-414 isoform P14416-2): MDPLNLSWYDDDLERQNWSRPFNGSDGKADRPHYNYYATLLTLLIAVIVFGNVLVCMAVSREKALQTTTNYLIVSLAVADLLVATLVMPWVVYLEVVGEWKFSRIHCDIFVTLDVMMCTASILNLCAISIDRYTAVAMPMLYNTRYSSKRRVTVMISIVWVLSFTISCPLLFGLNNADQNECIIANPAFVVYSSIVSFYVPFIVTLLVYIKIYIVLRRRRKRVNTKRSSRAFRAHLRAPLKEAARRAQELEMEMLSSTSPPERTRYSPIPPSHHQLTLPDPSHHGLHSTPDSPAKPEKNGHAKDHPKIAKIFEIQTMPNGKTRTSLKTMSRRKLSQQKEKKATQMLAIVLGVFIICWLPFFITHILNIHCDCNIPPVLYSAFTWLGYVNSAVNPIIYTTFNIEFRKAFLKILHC
T1 sequence (P34969 whole entry): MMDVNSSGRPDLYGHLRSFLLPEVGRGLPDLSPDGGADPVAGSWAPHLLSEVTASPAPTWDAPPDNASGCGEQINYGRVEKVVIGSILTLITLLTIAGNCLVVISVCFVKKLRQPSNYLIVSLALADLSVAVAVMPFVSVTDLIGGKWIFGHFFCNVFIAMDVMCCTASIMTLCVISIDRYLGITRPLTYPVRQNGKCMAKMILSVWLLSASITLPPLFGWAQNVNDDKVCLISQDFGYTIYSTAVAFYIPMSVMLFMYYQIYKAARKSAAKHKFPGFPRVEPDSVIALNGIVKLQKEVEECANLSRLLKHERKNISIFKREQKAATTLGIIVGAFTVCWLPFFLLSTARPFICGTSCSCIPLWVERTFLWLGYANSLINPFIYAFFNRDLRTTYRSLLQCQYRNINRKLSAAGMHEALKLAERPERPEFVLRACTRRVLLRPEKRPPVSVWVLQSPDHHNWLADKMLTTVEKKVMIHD

As to `CN1C(=O)c2ccccc2[S@+]([O-])c2ccc(C(=O)NCCc3cccs3)cc21` [ML321], the inhibition at 10 µM on 5-HT7 serotonin receptor stood at 53%; in data set [1] it was 48%; at D2 [2] it was 92%; at D3 it was 59%; in [4] it was 64%. Also, in [3], the koff was 1.3 min⁻¹. Besides, at hERG K+ channel, the IC50 is above 25 µM.
For the compound `NCCc1ccc(O)c(O)c1` [dopamine], on D2 [5], the EC50 result is “EC50 and IC50 values for dopamine and ML321, respectively, were determined”.
For the compound PPHT-red, the Kd in data set [6] is 0.0115 ± 0.00016 µM.
Take `O=C(CCCN1CCC2(CC1)C(=O)NCN2c1ccccc1)c1ccc(F)cc1` [spiperone]: the Ki entry at D2 [7] was “performed using both ML321 and unlabeled spiperone (as a control) with the wild-type”.

Usually inhibition stands for the change of the read-out against control, counted positive when it falls. What is called koff is a measure of how fast the partners let go of each other. For orientation: IC50 means the concentration at which inhibition is half-maximal.
